Assay results from patent US11191820B2, “Method for inducing early T memory response with short peptides anti-tumor vaccine” (OSE IMMUNOTHERAPEUTICS, priority 2015, dated 2021).
Marks after values point to notes of the source that are not given here.

Assays:
Type in all cases: in vivo, human
central memory T cells [1] = assay: Cultured IFN-γ ELISPOT after 10-day in vitro stimulation of PBMC, phase 1/2 colon cancer trial of OSE-2101; design: key to net SFC of vaccine positive CTL responses: —, indicates SFC response did not meet criteria and vaccine response was negative; details: for Mean SFC: 10 colon patients
Procedure: (§1) Clinical study design. Both trials were designed as phase 1/2, open label, multi-center, single dose, multiple administration studies to evaluate the safety and immunogenicity of the OSE-2101 immunotherapy. Patients were treated with 1 ml OSE-2101 every 3 weeks for a total of six doses. Each dose was administered subcutaneously in the same vicinity in the deltoid or upper thigh region, or at a contralateral site if local side-effects were observed. The study duration for each completed patient was 18 weeks. Clinical responses or patient survival were not measured in either phase 1/2 studies.
(§2) Clinical sample processing. Blood or leukapheresis product was obtained from patients at the pre-treatment, the Week 9 and Week 18 time points, 3 weeks after the third and sixth dose of OSE-2101 respectively. Peripheral blood mononuclear cells (PBMC) were isolated from samples within 24 hours of collection using a FICOLL-PAQUE density gradient and cryopreserved in containers designed to ensure optimal freezing (Mr. Frosty, Nalgene). For use, cells were rapidly thawed at 37° C. then transferred to human AB serum-containing medium for work-up.
(§3) Measurement of central T memory cells responses and T effector memory cells. The CTL responses in 16 total patients (10 colon and six NSCLC) were monitored for CTL responses against each epitope and against the wild-type epitope of epitopes analogs. For each patient, the pre-treatment, Week 9 and Week 18 time points were batch-tested in the same experiment to allow pre- versus post-treatment response comparison in the same experiment. Central T memory cells responses were measured using an IFN-γ enzyme-linked immunospot (cultured ELISPOT) assay following in vitro stimulation of PBMC for 10 days with each vaccine epitope. Briefly, PBMC from each time point were stimulated on day 0 with 10 μg/ml of each epitope individually in replicate in 48-well culture plates (2×10^6 PBMC/well). All cultures were fed with rIL-2 (Endogen, Woburn, Mass.; 10 U/ml final concentration) on days 1, 4 and 7. Ten days after initiation of culture, cells were harvested and tested for activity against specific vaccine peptides and corresponding wild-type peptides of vaccine analogs in the T memory ELISPOT assay. Cells were tested in Millipore IP 96-well plates pre-coated with mouse anti-human IFN-γ antibody (Mabtech USA, Cincinnati, Ohio). Five×10^4 cells and 1.25×10^4 cells from each culture were plated in triplicate wells together with 10^5 irradiated autologous PBMC and 10 μg/ml peptide. As a control, CTL were also tested against an irrelevant HLA-A2.1-binding HBV peptide. After 20 hours incubation, T memory ELISPOT plates were developed by performing sequential incubations with biotinylated anti-human IFN-γ antibody (Mabtech USA), Avidin-Peroxidase Complex (APC, Vector Laboratories, Burlingame, Calif.), and 3-amino-9-ethyl carbazole (AEC) substrate (Sigma Aldrich, St. Louis, Mo.). Spot-forming cells (SFC) were enumerated using a computer-assisted image analysis system (Zeiss KS ELISPOT Reader, Carl Zeiss MicroImaging, Thornwood, N.J.). Data is reported as the net SFC per 5×10^4 cells after subtracting spots induced with the irrelevant HBV peptide.

central memory T cells [2] = assay: Cultured IFN-γ ELISPOT after 10-day in vitro stimulation of PBMC, phase 1/2 NSCLC trial of OSE-2101; design: key to net SFC of vaccine positive CTL responses: —, indicates SFC response did not meet criteria and vaccine response was negative
Procedure: as §1, §2, §3

central memory T cells [3] = assay: Central memory T cell cultured ELISPOT, phase 2 trial in advanced NSCLC
Procedure: CTL Immune responses measured though cultured Elispot. The immunogenicity was measured in Phase 2 clinical trial on cryopreserved PBMC from each test sample were thawed in 5% human culture medium (RPMI-1640 medium with 25 mM HEPES, supplemented with 5% human AB serum, 4 mM L-glutamine, 0.5 mM sodium pyruvate, 0.1 mM MEM non-essential amino acids, 100 μg/ml streptomycin, and 100 U/ml penicillin) containing 30 μg/ml DNAase. After centrifugation for 5 minutes at 1200 rpm, the cell pellets were resuspended in 5% human culture medium and washed 2 times. For the central Memory T cell cultured ELISPOT assay, 2×10^6/ml PBMC were placed in replicate wells in a 48-well plates and stimulated for 10 days with 10 μg/ml of each peptide. As a positive control, PBMC were also stimulated with a pool of recall viral peptides. Human rIL2 (10 U/ml) was added to the peptide-stimulated cultures at day 1, day 4 and day 7. After 10 days the stimulated cells were harvested and plated at a concentration of 5×10^4/well. Assay wells also received irradiated autologous PBMC (1×10^5/well) and 10 μg/ml peptide, either the vaccine peptide, irrelevant peptide or positive control peptides. Cells stimulated in vitro with each analog epitope were also tested against the corresponding wild-type epitope.
Data analysis and acceptance criteria. Mean and standard deviation (SD) of spots in replicate wells were calculated in all assays by transferring raw ELISPOT data from each experiment to an Excel-based computer program. Positive vaccine-induced T-cell responses were determined according to the criteria described below.
Acceptance Criteria for peptide-Induced specific T-cell response through central memory T cells: The positive criteria for CTL responses used in the phase 2 trial was identical to the criteria in the phase 1/2 trials which was established prospectively after analyzing the variability of pre-treatment responses in patients against each vaccine epitope and the irrelevant HBV control epitope. A positive peptide-induced CTL/T memory response to a given epitope met all of the following conditions: 1) was greater than 5 SFC above the irrelevant epitope response, 2) was greater than the mean SFC of the irrelevant epitope response, plus 2 SD, and 3) was two-fold greater than the SFC response in the pre-vaccination sample from the same patient, plus 2 SD. The inclusion of “plus two standard deviations” was used to accommodate the assay variability and served to increase the criteria stringency.

Which results are given for LLTFWNPPV [CEA.24V9 A]?
Mean SFC (central memory T cells [1]; Week 9): 86.5 SFC per 50,000 cells; Mean SFC (central memory T cells [1]; Week 18): 172.0 SFC per 50,000 cells; net SFC of vaccine positive CTL responses (central memory T cells [1]; colon patient 551, Week 9): 42.7^d) SFC per 50,000 cells; net SFC of vaccine positive CTL responses (central memory T cells [1]; colon patient 551, Week 18): —; net SFC of vaccine positive CTL responses (central memory T cells [1]; colon patient 601, Week 9): 118.0 SFC per 50,000 cells; net SFC of vaccine positive CTL responses (central memory T cells [1]; colon patient 601, Week 18): 96.0 SFC per 50,000 cells; net SFC of vaccine positive CTL responses (central memory T cells [1]; colon patient 602, Week 9): —; net SFC of vaccine positive CTL responses (central memory T cells [1]; colon patient 602, Week 18): —; net SFC of vaccine positive CTL responses (central memory T cells [1]; colon patient 603, Week 9): 63.0 SFC per 50,000 cells; net SFC of vaccine positive CTL responses (central memory T cells [1]; colon patient 603, Week 18): 20.7 SFC per 50,000 cells; net SFC of vaccine positive CTL responses (central memory T cells [1]; colon patient 604, Week 9): 55.3 SFC per 50,000 cells; net SFC of vaccine positive CTL responses (central memory T cells [1]; colon patient 604, Week 18): 187.0 SFC per 50,000 cells; net SFC of vaccine positive CTL responses (central memory T cells [1]; colon patient 605, Week 9): 43.7 SFC per 50,000 cells; net SFC of vaccine positive CTL responses (central memory T cells [1]; colon patient 605, Week 18): 109.7 SFC per 50,000 cells; net SFC of vaccine positive CTL responses (central memory T cells [1]; colon patient 606, Week 9): —; net SFC of vaccine positive CTL responses (central memory T cells [1]; colon patient 606, Week 18): —; net SFC of vaccine positive CTL responses (central memory T cells [1]; colon patient 607, Week 9): 196.7 SFC per 50,000 cells; net SFC of vaccine positive CTL responses (central memory T cells [1]; colon patient 607, Week 18): 586.7 SFC per 50,000 cells; net SFC of vaccine positive CTL responses (central memory T cells [1]; colon patient 608, Week 9): —; net SFC of vaccine positive CTL responses (central memory T cells [1]; colon patient 608, Week 18): —; net SFC of vaccine positive CTL responses (central memory T cells [1]; colon patient 609, Week 9): —; net SFC of vaccine positive CTL responses (central memory T cells [1]; colon patient 609, Week 18): 31.7 SFC per 50,000 cells; No. Positive Responses (central memory T cells [2]; 6 NSCLC patients, Week 9): 0; Mean SFC (central memory T cells [2]; 6 NSCLC patients, Week 18): 34.3 SFC per 50,000 cells; No. Positive Responses (central memory T cells [2]; 6 NSCLC patients, Week 18): 2; net SFC of vaccine positive CTL responses (central memory T cells [2]; NSCLC patient 201, Week 9): —; net SFC of vaccine positive CTL responses (central memory T cells [2]; NSCLC patient 201, Week 18): —; net SFC of vaccine positive CTL responses (central memory T cells [2]; NSCLC patient 502, Week 9): —; net SFC of vaccine positive CTL responses (central memory T cells [2]; NSCLC patient 502, Week 18): —; net SFC of vaccine positive CTL responses (central memory T cells [2]; NSCLC patient 504, Week 9): —; net SFC of vaccine positive CTL responses (central memory T cells [2]; NSCLC patient 504, Week 18): 25.3^d) SFC per 50,000 cells; net SFC of vaccine positive CTL responses (central memory T cells [2]; NSCLC patient 505, Week 9): —; net SFC of vaccine positive CTL responses (central memory T cells [2]; NSCLC patient 505, Week 18): —; net SFC of vaccine positive CTL responses (central memory T cells [2]; NSCLC patient 532, Week 9): —; net SFC of vaccine positive CTL responses (central memory T cells [2]; NSCLC patient 532, Week 18): 43.3 SFC per 50,000 cells; net SFC of vaccine positive CTL responses (central memory T cells [2]; NSCLC patient 651, Week 9): —; net SFC of vaccine positive CTL responses (central memory T cells [2]; NSCLC patient 651, Week 18): —; % of patients with positive CTL/central memory T cell response (central memory T cells [3]; phase 2, month 9): 57%; patients with positive CTL/central memory T cell response / patients tested (central memory T cells [3]; phase 2, month 9): 4/7; % of patients with positive CTL/central memory T cell response (central memory T cells [3]; phase 2, month 12): 50%; patients with positive CTL/central memory T cell response / patients tested (central memory T cells [3]; phase 2, month 12): 2/4; % of patients with positive CTL/central memory T cell response (central memory T cells [3]; phase 2, week 9): 39%; patients with positive CTL/central memory T cell response / patients tested (central memory T cells [3]; phase 2, week 9): 13/33; % of patients with positive CTL/central memory T cell response (central memory T cells [3]; phase 2, week 18): 31%; patients with positive CTL/central memory T cell response / patients tested (central memory T cells [3]; phase 2, week 18): 10/32; % of patients with positive CTL/central memory T cell response (central memory T cells [3]; phase 2, week 30): 28%; patients with positive CTL/central memory T cell response / patients tested (central memory T cells [3]; phase 2, week 30): 9/23
